Data on four compounds can be found in article PMC10193574 (ACS Omega, 2023).

For assay [1], the system named is E. coli (ATCC25922). Nature of the assay: Antibacterial MIC, broth growth inhibition OD600. Type of assay: cell-based, Escherichia coli. The following applies: for MIC: Escherichia coli, ATCC25922, read-out: MIC Ec.
For assay [2], the system named is A. baumannii (ATCC19606). Nature of the assay: Antibacterial MIC, broth growth inhibition OD600. Type of assay: cell-based, Acinetobacter baumannii.
The test system of assay [3] is C. albicans (ATCC90028). Nature of the assay: Antifungal MIC, growth inhibition. Type of assay: cell-based. The note with it: Candida albicans.
Assay [4] concerns P. aeruginosa (ATCC27853). Description: Antibacterial MIC, broth growth inhibition OD600. Type of assay: cell-based, Pseudomonas aeruginosa.
For assay [5], the system named is C. neoformans (ATCC 208821). Nature of the assay: Antifungal MIC, growth inhibition. Type of assay: cell-based. The following applies: Cryptococcus neoformans, ATCC208821, read-out: MIC Cn.
The subject of assay [6] is MRSA (ATCC43300). Nature of the assay: Antibacterial MIC, broth growth inhibition OD600. Type of assay: cell-based, Staphylococcus aureus. The note with it: MIC = ≥80% growth inhibition.
For assay [7], the system named is E. coli, K. pneumoniae, P. aeruginosa, A. baumannii, MRSA, C. albicans, C. neoformans. Nature of the assay: Antibacterial and antifungal MIC panel. Type of assay: cell-based.
[8] abbreviates: ATCC90028, read-out: MIC Ca, MIC = ≥80% growth inhibition.

Converted amounts (≈) assume the structure as drawn. Read-outs that look alike come from different tables or passages of the source.

For the compound `COc1cc2c(=O)c(C(=O)NCCNCCO)cn(Cc3ccccc3)c2cc1OCc1cccc(F)c1` [Compound 42, 1-Benzyl-7-[(3-fluorobenzyl)oxy]-N-{2-[(2-hydroxyethyl)amino]ethyl}-6-methoxy-4-oxo-1,4-dihydroquinoline-3-carboxamide], the MIC in assay [1] was less than 0.25 µg/mL; in assay [2] (Acinetobacter baumannii, ATCC19606, read-out: MIC Ab) it was less than 0.25 µg/mL; in assay [3] (ATCC90028, read-out: MIC Ca), more than 32 µg/mL; in assay [4] (Pseudomonas aeruginosa, ATCC27853, read-out: MIC Pa) it was less than 0.25 µg/mL; in assay [5], less than 0.25 µg/mL. For the same compound, the “MIC MRSa” value in assay [6] is more than 32 µg/mL.
On to `CCn1cc(C(=O)NCCNCCO)c(=O)c2cc(OC)c(OCc3cc(F)cc(F)c3)cc21` [Compound 43, 7-[(3,5-Difluorobenzyl)oxy]-1-ethyl-N-{2-[(2-hydroxyethyl)amino]ethyl}-6-methoxy-4-oxo-1,4-dihydroquinoline-3-carboxamide], for which the MIC in assay [1] was less than 0.25 µg/mL; in assay [3] (setting [8]), more than 32 µg/mL. The “MIC MRSa” value in assay [6] was more than 32 µg/mL.
On to colistin [reference compound], for which the “MIC Ec” value in assay [1] (MIC = ≥80% growth inhibition) came to 0.12 µg/mL. Further, the “MIC Ab” value in assay [2] (MIC = ≥80% growth inhibition) stood at 0.25 µg/mL. In addition, in assay [4] (MIC = ≥80% growth inhibition), the “MIC Pa” value came out at 0.25 µg/mL. In addition, the “MIC against Gram-negative bacteria (summary)” value in assay [7] was in the range of 0.1 to 0.25 µg/mL.
Take `OC(Cn1cncn1)(Cn1cncn1)c1ccc(F)cc1F` [fluconazole, reference compound]: the MIC in assay [3] (setting [8]) was determined as 0.125 µg/mL (≈ 0.408 µM).
